What was measured:
[1] = test system: mutant P301L human tau; assay: Western blot of tau levels in HeLa cells transfected with mutant P301L human tau; assay type: cell-based; settings: treated 24 hours, various doses, pS199-202 antibody
Protocol: (§1) Compounds effects on tau activity/level were determine by a previously described method (Jinwal et al J. Neurosci. 2009 Sep. 30; 29(39):12079-88). In brief, human tau transfected HeLa Cells were treated with Compounds for 24 hours. Cells were harvested by using MPER reagent containing protease inhibitor and phosphatase inhibitor. Samples were analyzed by western blot. pS199-202 antibody was used to detect phospho tau level. Total tau levels were detected by tau H-150 &/or tau 46 antibodies.
(§2) HeLa cells were transfected with wild-type human tau (A) and mutant P301L human tau (B) (FIG. 1). After 24 hours, cells were treated with either palmadorin M or beauvericin for 24 hours.

[2] = test system: wild-type human tau; assay: Western blot of tau levels in HeLa cells transfected with wild-type human tau; assay type: cell-based; settings: treated 24 hours; for phosphorylated (pS199-202) wild type tau level: HeLa cells transfected with wild-type human tau, various doses, pS199-202 antibody; for C-terminal tau level (Tau 46 antibody) / N-terminal tau level (Tau H-150 antibody): human tau transfected HeLa cells, wild type and P301L not distinguished
Protocol: as §1, §2

| SMILES | phosphorylated (pS199-202) mutant P301L tau level [1] | phosphorylated (pS199-202) wild type tau level [2] | C-terminal tau level (Tau 46 antibody) [2] | N-terminal tau level (Tau H-150 antibody) [2] |
| --- | --- | --- | --- | --- |
| C=C1CC[C@@H]2C(C)(C)CCC[C@]2(C)[C@@H]1CC/C(C)=C/C(=O)OC(CO)CO [palmadorin M] | potent reduction | potent reduction | moderate change in tau level | increase in tau level |
| CC(C)[C@H]1OC(=O)[C@H](Cc2ccccc2)N(C)C(=O)[C@@H](C(C)C)OC(=O)[C@H](Cc2ccccc2)N(C)C(=O)[C@@H](C(C)C)OC(=O)[C@H](Cc2ccccc2)N(C)C1=O [beauvericin] | potent reduction | potent reduction | moderate change in tau level | increase in tau level |

— patent publication US20150306068A1, “COMPOUNDS AND RELATED METHODS FOR TREATMENT OF NEURODEGENERATIVE DISEASES” (priority 2013, published 2015)
